Experimental data taken from the supplement of paper PMC11451515.

Legend:
Settings in all cases: 48 h
SEM cells [1] = assay: cell viability relative to DMSO control; higher = less cytotoxic
Summary of the method: (§1)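 Library compounds in DMSO were pin-dosed in an 11-point threefold series (47 μM to 0.79 nM) onto leukemia cells in 1536-well plates (5 μl). Plates held 500 cells/well of NOMO1 or SEM or 1000 cells/well of P12-Ichikawa, each adapted for at least four passages in each medium. Luminescence was read with CellTiter-Glo One after 48 h at 37°C. Viability means the per-plate percentage relative to DMSO wells, using cell-free wells as background.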

NOMO1 [2] = assay: as above
Summary of the method: as §1

P12-Ichikawa [3] = assay: as above
Summary of the method: as §1

SEM cells [4] = assay: AUC of viability dose-response curve (% viability x log10 dose units); higher = less sensitive
Summary of the method: (§2)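 In 1536-well plates, leukemia cells adapted to each medium (500 or 1000 cells/well) were exposed for 48 h at 37°C to library compounds in DMSO across 11 threefold doses, 47 μM down to 0.79 nM. Viability was read by CellTiter-Glo One luminescence and normalised per plate to DMSO and cell-free wells. A four-parameter log-logistic fit over log10 doses was integrated by trapezoidal rule. This yielded the area under the curve, with over-full-viability curves scaled and quality-control failures dropped.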

NOMO1 [5] = assay: as above
Summary of the method: as §2

P12-Ichikawa [6] = assay: as above
Summary of the method: as §2

O=C1NC(=O)/C(=C/c2ccc3nccc(-c4ccncc4)c3c2)S1
cell viability [%]
Settings | NOMO1 [2] | P12-Ichikawa [3] | SEM cells [1]
HPLM + 10% dialyzed FBS, 0.000781 µM | 129 | 112 | 108
HPLM + 10% dialyzed FBS, 0.00234 µM | 96.8 | 120 | 104
HPLM + 10% dialyzed FBS, 0.00702 µM | 124 | 122 | 105
HPLM + 10% dialyzed FBS, 0.0211 µM | 97.8 | 115 | 107
HPLM + 10% dialyzed FBS, 0.0632 µM | 89.6 | 98.4 | 95.5
HPLM + 10% dialyzed FBS, 0.19 µM | 85.4 | 95.9 | 74.5
HPLM + 10% dialyzed FBS, 0.569 µM | 55.6 | 83.8 | 43.9
HPLM + 10% dialyzed FBS, 1.71 µM | 50.8 | 68.4 | 49.5
HPLM + 10% dialyzed FBS, 5.12 µM | 33.8 | 57.4 | 19.7
HPLM + 10% dialyzed FBS, 15.4 µM | 26 | 36.1 | 13.7
HPLM + 10% dialyzed FBS, 46.1 µM | 14.7 | 5.85 | 1.01
RPMI 5 mM glucose + 10% FBS, 0.000781 µM | 115 | 109 | 115
RPMI 5 mM glucose + 10% FBS, 0.00234 µM | 99.6 | 107 | 116
RPMI 5 mM glucose + 10% FBS, 0.00702 µM | 107 | 103 | 134
RPMI 5 mM glucose + 10% FBS, 0.0211 µM | 113 | 109 | 116
RPMI 5 mM glucose + 10% FBS, 0.0632 µM | 101 | 96.2 | 108
RPMI 5 mM glucose + 10% FBS, 0.19 µM | 92.9 | 74.5 | 86.1
RPMI 5 mM glucose + 10% FBS, 0.569 µM | 84.1 | 64.2 | 55.4
RPMI 5 mM glucose + 10% FBS, 1.71 µM | 66.7 | 50.2 | 48.2
RPMI 5 mM glucose + 10% FBS, 5.12 µM | 36.8 | 32.6 | 23.9
RPMI 5 mM glucose + 10% FBS, 15.4 µM | 29.1 | 17.1 | 7.87
RPMI 5 mM glucose + 10% FBS, 46.1 µM | 16 | 7.42 | 1.09
RPMI 5 mM glucose + 10% dialyzed FBS, 0.000781 µM | 107 | 104 | 105
RPMI 5 mM glucose + 10% dialyzed FBS, 0.00234 µM | 115 | 109 | 103
RPMI 5 mM glucose + 10% dialyzed FBS, 0.00702 µM | 92 | 114 | 101
RPMI 5 mM glucose + 10% dialyzed FBS, 0.0211 µM | 97.3 | 115 | 111
RPMI 5 mM glucose + 10% dialyzed FBS, 0.0632 µM | 88 | 98.8 | 96.7
RPMI 5 mM glucose + 10% dialyzed FBS, 0.19 µM | 63.2 | 83.3 | 67.8
RPMI 5 mM glucose + 10% dialyzed FBS, 0.569 µM | 61 | 68.2 | 46.9
RPMI 5 mM glucose + 10% dialyzed FBS, 1.71 µM | 55.9 | 51.1 | 43.4
RPMI 5 mM glucose + 10% dialyzed FBS, 5.12 µM | 34.7 | 34.3 | 24.3
RPMI 5 mM glucose + 10% dialyzed FBS, 15.4 µM | 27.2 | 20.6 | 12.8
RPMI 5 mM glucose + 10% dialyzed FBS, 46.1 µM | 13.6 | 6.67 | 0.853

AUC of viability dose-response curve
Settings | NOMO1 [5] | P12-Ichikawa [6] | SEM cells [4]
HPLM + 10% dialyzed FBS | 293 | 341 | 289
RPMI 5 mM glucose + 10% FBS | 351 | 308 | 290
RPMI 5 mM glucose + 10% dialyzed FBS | 296 | 317 | 290

C[C@]12CC[C@H]3[C@@H](CC[C@H]4NC(=O)\C=C/[C@]34C)[C@@H]1CC[C@@H]2C(=O)NC5=CC(=CC=C5C(F)(F)F)C(F)(F)F
cell viability [%]
Settings | NOMO1 [2] | P12-Ichikawa [3] | SEM cells [1]
HPLM + 10% dialyzed FBS, 0.000781 µM | 123 | 109 | 116
HPLM + 10% dialyzed FBS, 0.00234 µM | 123 | 112 | 122
HPLM + 10% dialyzed FBS, 0.00702 µM | 122 | 112 | 118
HPLM + 10% dialyzed FBS, 0.0211 µM | 118 | 111 | 117
HPLM + 10% dialyzed FBS, 0.0632 µM | 123 | 115 | 118
HPLM + 10% dialyzed FBS, 0.19 µM | 114 | 111 | 61.3
HPLM + 10% dialyzed FBS, 0.569 µM | 101 | 102 | 119
HPLM + 10% dialyzed FBS, 1.71 µM | 118 | 104 | 113
HPLM + 10% dialyzed FBS, 5.12 µM | 107 | 91.3 | 81.1
HPLM + 10% dialyzed FBS, 15.4 µM | 96.1 | 107 | 111
HPLM + 10% dialyzed FBS, 46.1 µM | 94.7 | 102 | 99.3
RPMI 5 mM glucose + 10% FBS, 0.000781 µM | 117 | 117 | 123
RPMI 5 mM glucose + 10% FBS, 0.00234 µM | 125 | 108 | 120
RPMI 5 mM glucose + 10% FBS, 0.00702 µM | 114 | 114 | 138
RPMI 5 mM glucose + 10% FBS, 0.0211 µM | 100 | 108 | 132
RPMI 5 mM glucose + 10% FBS, 0.0632 µM | 111 | 111 | 120
RPMI 5 mM glucose + 10% FBS, 0.19 µM | 109 | 117 | 115
RPMI 5 mM glucose + 10% FBS, 0.569 µM | 112 | 110 | 124
RPMI 5 mM glucose + 10% FBS, 1.71 µM | 112 | 105 | 129
RPMI 5 mM glucose + 10% FBS, 5.12 µM | 107 | 107 | 56
RPMI 5 mM glucose + 10% FBS, 15.4 µM | 96.3 | 103 | 128
RPMI 5 mM glucose + 10% FBS, 46.1 µM | 98.8 | 104 | 126
RPMI 5 mM glucose + 10% dialyzed FBS, 0.000781 µM | 105 | 104 | 114
RPMI 5 mM glucose + 10% dialyzed FBS, 0.00234 µM | 120 | 111 | 141
RPMI 5 mM glucose + 10% dialyzed FBS, 0.00702 µM | 105 | 109 | 120
RPMI 5 mM glucose + 10% dialyzed FBS, 0.0211 µM | 118 | 108 | 126
RPMI 5 mM glucose + 10% dialyzed FBS, 0.0632 µM | 104 | 117 | 121
RPMI 5 mM glucose + 10% dialyzed FBS, 0.19 µM | 111 | 99.2 | 100
RPMI 5 mM glucose + 10% dialyzed FBS, 0.569 µM | 111 | 99.3 | 126
RPMI 5 mM glucose + 10% dialyzed FBS, 1.71 µM | 103 | 98.4 | 121
RPMI 5 mM glucose + 10% dialyzed FBS, 5.12 µM | 94.9 | 96.7 | 37.1
RPMI 5 mM glucose + 10% dialyzed FBS, 15.4 µM | 103 | 106 | 117
RPMI 5 mM glucose + 10% dialyzed FBS, 46.1 µM | 96.9 | 97.5 | 105

AUC of viability dose-response curve
Settings | NOMO1 [5] | P12-Ichikawa [6] | SEM cells [4]
HPLM + 10% dialyzed FBS | 435 | 456 | 432
RPMI 5 mM glucose + 10% FBS | 440 | 455 | 456
RPMI 5 mM glucose + 10% dialyzed FBS | 461 | 452 | 442
